From patent US20250270255A1, “CASPASE-2 INHIBITOR COMPOUNDS” (KINTSUGI THERAPEUTICS S.L., priority 2021, published 2025)
pIC50, pKi: −log10 of the molar value. Read-outs that look alike come from different tables or passages of the source. Where a SMILES comes first, the peptide text is derived from it. The star is where a group is joined. AspCH2OBz(2,6-Me2) = Cc1cccc(C)c1C(=O)OCC(=O)[C@H](CC(=O)O)N*

How the values were obtained:
[1] = molecular target: T1, caspase-2 (Homo sapiens, UniProt P42575); assay: Determination of Ki and IC50 inhibition parameters; type: biochemical; set-up: made in house; settings: for pKi: Morrison equation, 15 min pre-incubation with inhibitor at 37 C; for pIC50: calculated as IC50=Ki×(1+[S]/Km), substrate NH-Idc-hGlu-Thr(Bzl)-Ser-Asp-ACC 50 uM
T1 sequence (P42575 170-325 limits assumed): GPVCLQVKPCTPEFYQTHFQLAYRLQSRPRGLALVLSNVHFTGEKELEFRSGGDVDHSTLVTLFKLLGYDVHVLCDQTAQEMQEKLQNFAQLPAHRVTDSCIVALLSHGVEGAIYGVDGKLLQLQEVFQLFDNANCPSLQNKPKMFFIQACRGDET
T1 sequence (P42575 348-452 limits assumed): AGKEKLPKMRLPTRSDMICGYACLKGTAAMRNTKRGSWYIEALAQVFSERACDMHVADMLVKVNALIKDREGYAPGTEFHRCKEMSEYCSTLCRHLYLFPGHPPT
Experimental: (§1) The detailed protocol for the expression and purification of human apoptotic caspases can be found elsewhere (Stennicke, 1999).
(§2) The measurement of Ki and IC50 inhibition parameter of synthesized inhibitors towards caspases-2, -3, and -8 was performed using a fMax spectrofluorimeter (Molecular Devices, Sunnyvale, CA, USA) operating in fluorescence kinetic mode in 96-well Corning (Corning, NY, USA) plates. Before kinetic analysis, all caspases were active site-titrated using the zVAD-fmk inhibitor (Cayman Chemical Company, Cat No. 14467). The caspases assay buffer was 10% w/v sucrose, […], 20 mM Pipes, 10 mM NaCl, 1 mM EDTA, and 10 mM DTT (pH=7.3). Buffers were prepared at room temperature, and all kinetic assays were performed at 37° C. The Ki parameter was measured using the Morrison equation (Copeland, 2000). For each caspase, an appropriate ACC-fluorogenic substrate was used to monitor substrate hydrolysis: NH-Idc-hGlu-Thr(Bzl)-Ser-Asp-ACC (50 uM) for caspase-2, Ac-DEVD-ACC (100 uM) for caspase-3 and Ac-LEHD-ACC (100 uM) for caspase-8. The ACC fluorescence was monitored using 355 nm (excitation) and 460 nm (emission) wavelengths. To meet the criteria for reversible inhibitor kinetics, the lowest inhibitor concentration was at least 4-fold higher that the caspase concentration in the assay. The caspase (60 uL) was first pre-warmed in the assay buffer in the 96-well plate for 15 min at 37 C and then pre-incubated with the inhibitor (20 uL) for another 15 min at 37 C. Next, the substrate (20 uL) was added to the enzyme-inhibitor mixture and the progress of reaction (ACC release) was monitored over time. The Ki parameter was calculated from Morrison equation, and the IC50 parameter was calculated using the formula: IC50=Ki×(1+[S]/Km], where the [S] is substrate concentration used in the assay and Km is a Michaelis-Menten constant for a substrate. All the measurements were performed at least three times and the data was analyzed using GraphPad Prism 7 software.

[2] = molecular target: T2, caspase-3 (Homo sapiens, UniProt P42574); assay: Determination of Ki and IC50 inhibition parameters; type: biochemical; settings: for pKi: Morrison equation, 15 min pre-incubation with inhibitor at 37 C
T2 construct: made in house
T2 sequence (P42574 29-175 limits assumed): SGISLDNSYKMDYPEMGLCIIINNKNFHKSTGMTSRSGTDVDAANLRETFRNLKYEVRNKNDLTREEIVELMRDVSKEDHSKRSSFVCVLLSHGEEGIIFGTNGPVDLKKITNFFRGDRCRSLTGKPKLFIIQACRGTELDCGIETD
T2 sequence (P42574 176-277 limits assumed): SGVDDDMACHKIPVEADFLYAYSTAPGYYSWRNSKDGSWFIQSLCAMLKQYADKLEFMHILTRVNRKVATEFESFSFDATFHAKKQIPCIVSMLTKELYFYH
Experimental: as §1, §2

[3] = molecular target: T1, caspase-2; assay: Determination of kobs/I inhibition parameter; type: biochemical; set-up: made in house; settings: pH 7.3; pseudo-first-order conditions; substrate NH-Idc-hGlu-Thr(Bzl)-Ser-Asp-ACC 50 uM; 37° C.
Experimental: (§3) The measurement of kobs/l inhibition parameter (second order rate of enzyme inhibition) of synthesized inhibitors towards caspases-2, -3, and -8 was performed using a fMax spectrofluorimeter (Molecular Devices, Sunnyvale, CA, USA) operating in fluorescence kinetic mode in 96-well Corning (Corning, NY, USA) plates. Before kinetic analysis, all caspases were active site-titrated using the zVAD-fmk inhibitor (Cayman Chemical Company, Cat No. 14467). The caspases assay buffer was 10% w/v sucrose, […], 20 mM Pipes, 10 mM NaCl, 1 mM EDTA, and 10 mM DTT (pH=7.3). Buffers were prepared at room temperature, and all kinetic assays were performed at 37° C. The kobs/l parameter was measured under pseudo-first-order kinetic conditions ([I]>>[E]). […] The ACC fluorescence was monitored using 355 nm (excitation) and 460 nm (emission) wavelengths. […] At the same time in a separate tube, the caspase was preincubated in assay buffer at 37 C, and after 15 min, the enzyme was added to wells (60 uL per well, total reaction volume 100 uL) and the fluorescence was monitored for 30 min, starting immediately. Second-order rate of inhibition (Kobs/l) was determined in at least three independent experiments and presented as an average value. […]

[4] = molecular target: T2, caspase-3; assay: Determination of kobs/I inhibition parameter; type: biochemical; settings: pH 7.3; pseudo-first-order conditions; substrate Ac-DEVD-ACC 100 uM; 37° C.
Experimental: as §3

[5] = molecular target: T3, caspase-8 (Homo sapiens, UniProt Q14790); assay: Determination of kobs/I inhibition parameter; type: biochemical; settings: pH 7.3; pseudo-first-order conditions; substrate Ac-LEHD-ACC 100 uM; 37° C.
T3 construct: made in house
T3 sequence (Q14790 217-374 limits assumed): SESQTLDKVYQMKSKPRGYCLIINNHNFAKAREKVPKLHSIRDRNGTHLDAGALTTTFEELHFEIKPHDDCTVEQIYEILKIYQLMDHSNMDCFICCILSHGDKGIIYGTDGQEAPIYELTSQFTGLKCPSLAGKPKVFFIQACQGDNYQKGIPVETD
T3 sequence (Q14790 385-479 limits assumed): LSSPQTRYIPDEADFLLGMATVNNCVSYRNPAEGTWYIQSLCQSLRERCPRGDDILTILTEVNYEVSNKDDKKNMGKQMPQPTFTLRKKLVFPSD
Experimental: as §3

[6] = molecular target: T3, caspase-8; assay: Determination of Ki and IC50 inhibition parameters; type: biochemical; settings: for pKi: Morrison equation, 15 min pre-incubation with inhibitor at 37 C
[7] = molecular target: T1, caspase-2; settings: state of the art; cited from earlier work
[8] = test system: HepG2 cells; assay: Intracellular lipid accumulation, in vitro cellular model of NASH; type: cell-based; set-up: inhibition of intracellular lipid-accumulation: dose or concentration left out as unconfirmed; settings: for inhibition of intracellular lipid-accumulation: NASH-triggered HepG2 cultures, FIG. 4
Experimental: HepG2 cells (50.000 cells/well) were plated into 12-multiwell culture dishes on coverslips previously coated with collagen (2 mg/mL collagen solution (BD Biosciences) in PBS incubated at 37° C. for 30 min).
Cells were treated with a “NASH cocktail”: DMEM containing 4.5 mg/mL glucose supplemented with 10% (v/v) FBS, 1% (v/v) PenStrep and 2 mM L-glutamine plus fatty acids (100 μM sodium oleate and 100 μM palmitic acid), 100 nM insulin (all Sigma-Aldrich) and inflammatory cytokines (50 ng/ml tumor necrosis factor, TNF-α (Prospec), 25 ng/ml interleukin IL-1β (Petroteck) and 8 ng/ml transforming growth factor, TGF-β (R&D Systems)). The cells were exposed for 24h to this “NASH cocktail” and KIN compounds were concomitantly added at different concentrations.
At the end of treatments cells were washed with PBS and incubated with staining solution (BODIPY493/503 (Thermo Fisher Scientific) for 15 min at 37° C. Then cells were washed three times with PBS and were fixed in 4% PFA for 30 min at room temperature. After three additional washes with PBS, coverslips were mounted onto glass slides with a drop of Prolong® Gold antifade reagent (Invitrogen) with DAPI overnight at room temperature. Fluorescence micrographs were taken using an Axoimagen M1 microscope (Zeiss, Oberkochen, Germany) and fluorescent signals (DAPI and BODIPY) were quantified using ImageJ (n=10). The intracellular lipid load was calculated as a function of BODIPY™ 493/503 lipid dye area.
An in vitro cellular model of NASH was used to test the efficacy of caspase-2 inhibitors preventing intracellular accumulation of lipids. In this model, HepG2 cells are exposed for 24 h to “NASH conditions” including lipogenic (glucose, insulin, fatty acids) and inflammatory and pro-apoptotic (TNF-α, IL-1β, and TGF-β) triggers. […] This model has shown to correlate with human NASH pathology (Boeckmans et al. 2019).

[9] = molecular target: T1, caspase-2; settings: Poreba et al. (2019); cited from earlier work
[10] = molecular target: T1, caspase-2; assay: Kinetic assay of substrates NH-Idc-P4-P3-Dab-Asp-ACC (Example 4); type: biochemical; settings: substrate 10 μM; caspase-2 10 nM; 37° C.
Experimental: Prior to kinetic assay, substrates (several L) were diluted in DMSO to the […] (working concentration). Next, 1 μL of such substrate was spot into the well of 96-well plate following by the addition of […] of caspase-2 in buffer. Immediately after the enzyme was added, the plate was placed in fluorescence plate reader and the fluorescence was measured over the time in a kinetic mode (excitation 355 nm, emission 460 nm). The liberation of fluorescence was carried out for 30 minutes, and only linear portion of the plot was taken for analysis to calculate the rate of the reaction. The rate of best cleaved substrate was set to 100% and all other substrates were adjusted accordingly (cleavage rate, %). The final concentration of substrate was 10 μM, and the final concentration of caspase-2 was 10 nM. The caspase-2 assay buffer was 20 mM Pipes, 100 mM NaCl, sucrose 10% (w/v), 10 mM DTT, pH 7.2-7.4. The caspase-2 was preincubated in buffer at 37° C. for 15 min before added to the substrate.

[11] = calculated as IC50=Ki×(1+[S]/Km), substrate Ac-DEVD-ACC 100 uM
[12] = calculated as IC50=Ki×(1+[S]/Km), substrate Ac-LEHD-ACC 100 uM

Row | Compound | pKi [1] | pIC50 [1] | pKi [6] | pKi [2] | pIC50 [2, 11] | pIC50 [6, 12] | inhibition of intracellular lipid-accumulation [8] | other results
1 | Ac-VDVAD-aldehyde |  |  |  |  |  |  |  | potency against caspase-3 compared with caspase-2 [7]: more potent against caspase-3 than to caspase-2
2 | NH-Idc-hGlu-Thr(Bzl)-Orn-Asp-AOMK [Compound 3] | 9.15 | 8.13 | 7.36 | 7.86 | 7.04 | 6.49 | significantly higher percentage of inhibition than NH-23-C2 compound | 
3 | NH-Idc-hGlu-Thr(Bzl)-Ser-Asp-AOMK [reference compound] | 9.15 | 8.10 | 8.21 | 8.96 | 8.15 | 7.34 |  | Caspase-2 inhibitory activity [9]: highest Caspase-2 inhibitory activity among the assayed compounds; selectivity for Caspase-3 [9]: no selectivity for Caspase-3; selectivity for Caspase-8 [9]: limited selectivity for Caspase-8
4 | NH-Idc-hLeu-Thr(Bzl)-Dab-Asc-ACC |  |  |  |  |  |  |  | RFU/s, %, average (cleavage rate, best substrate set to 100%) [10]: 0.0%

More lines, main results first:

Row | pKi [1] | pIC50 [1] | pKi [6] | pKi [2] | pIC50 [2, 11] | pIC50 [6, 12] | Compound | inhibition of intracellular lipid-accumulation [8] | other results
5 | 9.40 | 8.31 | 8.66 |  |  |  | CC(=O)N[C@H](C(=O)N[C@@H](CC(=O)O)C(=O)N[C@H](C(=O)N[C@@H](C)C(=O)N[C@@H](CC(=O)O)C(=O)COC(=O)c1c(C)cccc1C)C(C)C)C(C)C [Ac-Val-Asp-Val-Ala-Asp-AOMK, reference compound] (Ac-VDVA-{AspCH2OBz(2,6-Me2)}) |  | pIC50 [2]: 10.00; kinact/KI [3]: 643 M⁻¹ s⁻¹; kinact/KI [4]: 1.36e+06 M⁻¹ s⁻¹; kinact/KI [5]: 98.4 M⁻¹ s⁻¹; pIC50 [6]: 7.80
6 | 8.96 | 7.92 | 6.68 | 7.53 | 6.71 | 5.81 | NH-Idc-hGlu-Thr(Bzl)-Dab-Asp-AOMK [Compound 2] | significantly higher percentage of inhibition than NH-23-C2 compound | 
7 | 9.10 | 8.06 | 8.17 | 8.42 | 7.61 | 7.30 | NH-Idc-hGlu-Thr(Bzl)-Lys-Asp-AOMK [Compound 1] | significantly higher percentage of inhibition than NH-23-C2 compound | efficacy inhibiting intracellular lipid accumulation ([8]; HepG2 under NASH conditions, inhibitors at 10, 20 and […], FIG. 5): better efficacy than NH-23-C2
